The record followed here is US5185377A, “Diphenyl compounds which inhibit arachidonic acid metabolism, and their use in pharmaceutical compositions” (Ciba-Geigy Corporation, priority 1990, dated 1993).

Experiment [1] concerns isolated tracheal spirals. In words: Arachidonic acid-induced contraction of isolated tracheal spirals. It counts as cell-based, guinea-pig. The settings on record: Cavia porcellus, average, 35° C., 5 μM indomethacin present, read-out: ED50 (concentration-related contraction). How it is done: (§1) Testing of antiasthmatic active qualities of triclosan and fenticlor in vitro is carried out on isolated tracheal spirals and lung parenchyma strips of adult guinea-pigs (250-500 g) of both sexes. The tracheal spirals are prepared by the method described by Constantine [J. W. Constantine et al., J. Pharm. Pharmacol. 17, 384 (1965)]. Particular emphasis is placed on complete removal of the surrounding connective tissue and on maintaining the integrity of the epithelium [N. A. Flavahan et al., J. Appl. Physiol. 58, 834 (1985)].
(§2) The lung parenchyma strip is prepared in accordance with the method described by Del Monte [L. Del Monte et a., Naunym-Schmiedebergs Arch. Pharmacol., 338, 417 (1988)]. The contraction of the isolated organs is determined as isotonic measurement of the path under standardised conditions [J. Slapke et al., Biomed. Biochim. Acta 42, 1309 (1983)] in a multiple organ bath.
A modified Krebs-Henseleit solution (pH=7.4) of the following composition is used for the studies (m×mol 1^-1): NaCl 134.8, KCl 5.9, Tris 10.02, CaCl2 1.82, MgCl2 1.145, glucose 1.11. Air is used for gassing. The bath temperature is 37° C. for the lung parenchyma strips and 35° C. for the tracheal spirals. […] In all studies, the contractions are induced by addition of arachidonic acid to the organ bath in increasing concentrations and are measured cumulatively. […]

Experiment [2] deals with isolated lung parenchyma strips. The experiment can be described thus: Arachidonic acid-induced contraction of isolated lung parenchyma strips. It counts as cell-based, guinea-pig. The settings on record: Cavia porcellus, read-out: ED50 (concentration-related contraction). How it is done:
as §1, §2
A modified Krebs-Henseleit solution (pH=7.4) of the following composition is used for the studies (m×mol 1^-1): NaCl 134.8, KCl 5.9, Tris 10.02, CaCl2 1.82, MgCl2 1.145, glucose 1.11. Air is used for gassing. The bath temperature is 37° C. for the lung parenchyma strips and 35° C. for the tracheal spirals. Conditioning of the preparations is performed several times with 5×10^-4 M acetylcholine to obtain the standardisation value, this substance subsequently being flushed out. In all studies, the contractions are induced by addition of arachidonic acid to the organ bath in increasing concentrations and are measured cumulatively. All the measurements are made in the present of 5 μM indomethacin.

pEC50: −log10 of the molar value.

As for `CCCCC/C=C\C/C=C\C/C=C\C/C=C\CCCC(=O)O` [Arachidonic acid, arachidonic acid], the pEC50 was 4.30 in experiment [1] and 4.00 in experiment [2].
